Literature values, collected in patent US20230330076A1, “CONTROLLED RELEASE FORMULATIONS OF FLAVOXATE AND PROCESS FOR PREPARATION THEREOF” (priority 2021, published 2023).
Where two headings read alike, the source gives them in different places.

Tests used:
[1] = tested on: α- and β-noradrenergic, muscarinic, serotoninergic and opiate receptors, and calcium binding sites; settings: rat brain tissue
[2] = not given; remark: listed apart in the source

apparent volume of distribution (in vivo, iv, 100 mg) [L/kg] | Compound | binding activity on receptors [1] | time of peak level of MFCA ([2]; single oral 200 mg dose) [min] | time of peak level of MFCA ([2]; single oral 400 mg dose) | AUC for the 400 mg dose relative to the 200 mg dose ([2]; single oral dosing) | dose excreted as MFCA ([2]; single oral dosing, within 12 hours) | T½ (IV dose equimolar to 100 mg) [h] | apparent volume of distribution (IV dose equimolar to 100 mg) [L/kg] | dose excreted as MFCA (IV dose equimolar to 100 mg, urine) [%]
0.20 | 3-methylflavone carboxylic acid [MFCA] | – | – | – | – | – | – | – | –
– | Cc1c(-c2ccccc2)oc2c(C(=O)OCCN3CCCCC3)cccc2c1=O.Cl [Flavoxate hydrochloride, 2-piperidinoethyl 3-methylflavone-8-carboxylate hydrochloride] | only weak binding activity | 30 to 60 | around two hours | approximately twice as large | About 50% | 1.39 | 2.89 | 47
